Measured values reported in article PMC6706161, “A surface plasmon resonance-based method for monitoring interactions between G protein-coupled receptors and interacting proteins” (Journal of Biological Methods, 2016).
No end group written: not given here.

Molecular target: T1, S100B (Bos taurus, UniProt P02638)
T1 construct: S100B, purified from bovine brain; purchased Merck Millipore 559290; host or cells: bovine brain (tissue-purified)
T1 sequence (P02638 2-92 limits assumed): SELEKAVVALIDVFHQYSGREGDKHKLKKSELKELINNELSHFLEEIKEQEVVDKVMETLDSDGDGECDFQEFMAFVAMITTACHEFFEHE
Assay: SPR (Biacore 3000) steady-state binding of S100B to immobilized peptide h5-HT7_IC3
Settings: 95% CI [3.93, 6.71], peptide amine-coupled to CM5 chip (about 1200 RU), mock-immobilized reference surface, analyte S100B purified from bovine brain, 0.38 to 12 µM (two experiments) and 1.25 to 40 µM (third), duplicates, running buffer 10 mM HEPES, 150 mM NaCl, 4 mM CaCl2, 0.005% Tween-20, pH 7.5, 25 °C, one-site binding model, three experiments, read-out: Kd (dissociation constant, affinity)
Description: • Custom peptides (> 95% pure) can be obtained from a number of commercial sources. In our hands, peptides from Selleck Chemicals (Houston, TX) have worked well. • S100B, purified from bovine brain (Cat. # 559290; Merck Millipore, Darmstadt, Germany) • Sensor Chip CM5 (single: Cat. # BR-1003-99; pack of three chips: Cat. # BR-1000-12; GE Healthcare) • Plastic Vials, Ø 7 mm; pack of 1000 vials (Cat. # BR-1002-12; GE Healthcare) • Rubber Caps, type 3; pack of 600 caps (Cat. # BR-1005-02; GE Healthcare) • Immobilization buffers: 10 mM sodium acetate, pH 4.0 (Cat. # BR-1003-49) and pH 4.5 (Cat. # BR-1003-50; GE Healthcare); 1 × 50 ml each • HBS-EP (Cat. # BR100188, 6 x 200 ml; GE Healthcare) • NaOH (Cat. # S8045; Sigma-Aldrich, Stockholm, Sweden) • DMSO (Cat. # D2650; Sigma-Aldrich) • Amine Coupling Kit (contains EDC, NHS and 1.0 M ethanolamine-HCl pH 8.5; Cat. # BR100050; GE Healthcare) • HEPES (Cat. # H3375; Sigma-Aldrich) • NaCl (Cat. # S7653; Sigma-Aldrich) • CaCl2 · 2H2O (Cat. # C8106; Sigma-Aldrich) • Tween-20 (Cat. # P1379; Sigma-Aldrich) • EDTA disodium salt (Cat. # E5134; Sigma-Aldrich) • Syringe filters, 0.2 µm pore size (Cat. # 83.1826.001; Sarstedt, Helsingborg, Sweden) • Bottle top filtration unit, 0.45 µm pore size (Cat. # 83.1823.100; Sarstedt)
Running buffer with Ca2+: 10 mM HEPES, 150 mM NaCl, 4 mM CaCl2, 0.005% Tween-20; pH 7.5. Store at 4 °C between experiments. […]

With KFPGFPRVEPDSVIALNGIV [h5-HT7_IC3] as the sequence, how does the Kd read?
The Kd was 5.32 µM.
